Values quoted from earlier work in US20030216635A1, “Method and system for monitoring pancreatic pathologies” (priority 2000, published 2003).

Conditions: value substituted into equation 1.3; set up at 4.7 Tesla

O=C([O-])CN(CCN(CC(=O)[O-])CC(=O)O)CCN(CC(=O)[O-])CC(=O)O.[Gd+3] [GdDTPA, gadolinium-diethylenetriamine-pentaacetic-acid]
Relaxivity constant R: 4.3 mM^−1 sec ^−1
